Data set [1] is described as follows: in vitro. To be noted: African green monkey.
In data set [2] the test system is SARS-CoV-2. The experiment in a line: microbe, parasite or virus in culture. In kind it is cell-based. The following applies: Severe acute respiratory syndrome coronavirus 2, Vero C1008, 72 h; VeroE6 cells, MOI~0.03, 3 days incubation, CPE by XTT; read-out: EC50 (anti-SARS-CoV-2 activity). On the technique in general: Tetrazolium dyes change colour on reduction, which living cells bring about.

A short description of data set [3]: in vitro. To be noted: human.
Data set [4] relates to SARS-CoV-2. Kind of data set: microbe, parasite or virus in culture. The format is cell-based. To be noted: Severe acute respiratory syndrome coronavirus 2, 72 h; Calu-3 cells, MOI~0.03, 3 days incubation, CPE by XTT; read-out: EC50 (anti-SARS-CoV-2 activity).
In data set [5] the target is SARS-CoV-2 nsp14 7-N MTase (Severe acute respiratory syndrome coronavirus 2, UniProt P0DTD1). The experiment in a line: biochemical. To be noted: Echo MS assay, 20 nM nsp14, 4 μM SAM, 4 μM GpppA, duplicates.
The conditions of data set [6]: in the same cell type; cited from earlier work.
Data set [7] can be described thus: Cytotoxicity (XTT) in Vero E6 cells. To be noted: African green monkey.
The nature of data set [8]: Cytotoxicity (XTT) in Calu-3 cells. To be noted: human.

This is an account of results in PMC10398685 (ACS Omega, 2023).

Like-named read-outs stand apart in the source and are kept apart here.

Turning to `CCN(C[C@H]1O[C@@H](n2cc(C#Cc3ccc(C(=O)O)cc3)c3c(N)ncnc32)[C@H](O)[C@@H]1O)S(=O)(=O)c1ccc(OC)c(C#N)c1` [Compound 12p], the CC50 at 3 days in “in vitro [1]” and in the data set “in vitro [3]” was over 100 µM throughout. The half-maximal effective concentration (EC50) in the data set on SARS-CoV-2 [2] and in the data set with SARS-CoV-2 [4] was over 100 µM throughout. Besides, in data set [5], the 50% inhibitory concentration (IC50) was 0.084 ± 0.0094 µM.

Take `COc1ccc(S(=O)(=O)N(C[C@H]2O[C@@H](n3cnc4c(N)ncnc43)[C@H](O)[C@@H]2O)C(C)C)cc1C#N` [Compound 3c]: the midpoint of inhibition in data set [5], the IC50, lay at 0.624 ± 0.0891 µM.

In the case of `CCN(C[C@H]1O[C@@H](n2cc(C#Cc3c[nH]c(=O)nc3N)c3c(N)ncnc32)[C@H](O)[C@@H]1O)S(=O)(=O)c1ccc(OC)c(C#N)c1` [Compound 12k], the CC50 at 3 days in “in vitro [1]” and in the data set “in vitro [3]” was over 100 µM in each case. Besides, the concentration giving a half-maximal response (EC50) in the data set on SARS-CoV-2 [2] and in the data set with SARS-CoV-2 [4] was over 100 µM throughout. In addition, the IC50 in data set [5] was 0.088 ± 0.0112 µM.

`CCN(C[C@H]1O[C@@H](n2cc(C#Cc3c[nH]c(=O)[nH]c3=O)c3c(N)ncnc32)[C@H](O)[C@@H]1O)S(=O)(=O)c1ccc(OC)c(C#N)c1` [Compound 12j]: the CC50 at 3 days in “in vitro [1]” and in the data set “in vitro [3]” was over 100 µM throughout. For the same compound, the EC50 in the data set on SARS-CoV-2 [2] and in the data set with SARS-CoV-2 [4] was over 100 µM each time. Further, the midpoint of inhibition in data set [5], the IC50, lay at 0.07 ± 0.0081 µM.

In turn, `COc1ccc(S(=O)(=O)N(C)C[C@H]2O[C@@H](n3cnc4c(N)ncnc43)[C@H](O)[C@@H]2O)cc1C#N` [Compound 3b] came in with a half-inhibitory concentration (IC50) in data set [5] of 0.128 ± 0.0144 µM.

As for `CCN(C[C@H]1O[C@@H](n2cc(C#Cc3cnc(O)nc3)c3c(N)ncnc32)[C@H](O)[C@@H]1O)S(=O)(=O)c1ccc(OC)c(C#N)c1` [Compound 12g], the CC50 at 3 days in “in vitro [1]” and in the data set “in vitro [3]” was over 100 µM throughout. The EC50 in the data set with SARS-CoV-2 [2] and in the data set with SARS-CoV-2 [4] was over 100 µM throughout. Also, in data set [5], the IC50 is 0.075 ± 0.0083 µM.

As for `CCN(C[C@H]1O[C@@H](n2cc(C#Cc3cncnc3)c3c(N)ncnc32)[C@H](O)[C@@H]1O)S(=O)(=O)c1ccc(OC)c(C#N)c1` [Compound 12m], the CC50 at 3 days in the data set “in vitro [1]” and in “in vitro [3]” was over 100 µM in each case. Further, the concentration for a half-maximal effect (EC50) with SARS-CoV-2 [2] and in the data set on SARS-CoV-2 [4] was over 100 µM throughout. For the same compound, the half-maximal inhibitory concentration (IC50) in data set [5] amounted to 0.051 ± 0.0062 µM.

With `COc1ccc(S(=O)(=O)N(C[C@H]2O[C@@H](n3cnc4c(N)ncnc43)[C@H](O)[C@@H]2O)C2CCCC2)cc1C#N` [Compound 3d], the 50% inhibitory concentration (IC50) in data set [5] is 2.38 ± 0.278 µM.

Regarding `CC(C)OC(=O)[C@H](C)N[P@](=O)(CO[C@H](C)Cn1cnc2c(N)ncnc21)Oc1ccccc1` [tenofovir alafenamide], in data set [6], the “Reported intracellular uptake, free tenofovir” value was 67 µM and the “Reported intracellular uptake, prodrug” value was 0.9 µM.

For `CCN(C[C@H]1O[C@@H](n2cc(C#Cc3ccccc3)c3c(N)ncnc32)[C@H](O)[C@@H]1O)S(=O)(=O)c1ccc(OC)c(C#N)c1` [Compound 12c], the CC50 at 3 days in “in vitro [1]” and in “in vitro [3]” was over 100 µM throughout. For the same compound, the concentration giving a half-maximal response (EC50) with SARS-CoV-2 [2] and in the data set with SARS-CoV-2 [4] was over 100 µM each time. Further, the IC50 in data set [5] came to 0.062 ± 0.0124 µM.

`Nc1ncnc2c1c(C#Cc1cnc3ccccc3c1)cn2[C@@H]1O[C@H](CSCC[C@H](N)C(=O)O)[C@@H](O)[C@H]1O` [TO507, reference compound]: the CC50 at 3 days in “in vitro [1]” and in the data set “in vitro [3]” was over 100 µM each time. The half-maximal effective concentration (EC50) in the data set on SARS-CoV-2 [2] and with SARS-CoV-2 [4] was over 100 µM each time. Moreover, the IC50 in data set [5] amounted to 0.068 ± 0.0121 µM.

Consider `CCC(CC)COC(=O)[C@H](C)N[P@](=O)(OC[C@H]1O[C@@](C#N)(c2ccc3c(N)ncnn23)[C@H](O)[C@@H]1O)Oc1ccccc1` [Remdesivir, reference compound], for which the CC50 at 3 days in data set [7] and in data set [8] was over 50 µM throughout. For the same compound, the 50% effective concentration (EC50) is 1.2 µM in the data set with SARS-CoV-2 [2] and 0.26 µM in the data set on SARS-CoV-2 [4].

Take `CCN(C[C@H]1O[C@@H](n2cnc3c(N)ncnc32)[C@H](O)[C@@H]1O)S(=O)(=O)c1ccc(OC)c(C#N)c1` [Compound 3a, reference compound]: the CC50 at 3 days in the data set “in vitro [1]” and in the data set “in vitro [3]” was over 100 µM each time. Besides, the half-maximal effective concentration (EC50) in the data set with SARS-CoV-2 [2] and with SARS-CoV-2 [4] was over 100 µM throughout. Further, the IC50 in data set [5] stood at 0.195 ± 0.0253 µM.

For the compound `CCN(C[C@H]1O[C@@H](n2cc(C#Cc3ccncc3)c3c(N)ncnc32)[C@H](O)[C@@H]1O)S(=O)(=O)c1ccc(OC)c(C#N)c1` [Compound 12n], the CC50 at 3 days in “in vitro [1]” and in the data set “in vitro [3]” was over 100 µM in each case. The 50% effective concentration (EC50) with SARS-CoV-2 [2] and with SARS-CoV-2 [4] was over 100 µM throughout. Further, in data set [5], half-maximal inhibition (IC50) was put at 0.041 ± 0.0071 µM.

As for `CCN(C[C@H]1O[C@@H](n2cc(C#Cc3cnc(N)nc3)c3c(N)ncnc32)[C@H](O)[C@@H]1O)S(=O)(=O)c1ccc(OC)c(C#N)c1` [Compound 12i], the CC50 at 3 days in the data set “in vitro [1]” and in “in vitro [3]” was over 100 µM each time. For the same compound, the EC50 in the data set on SARS-CoV-2 [2] and with SARS-CoV-2 [4] was over 100 µM each time. This compound returned an IC50 in data set [5] of 0.038 ± 0.0042 µM.

Regarding `CCN(C[C@H]1O[C@@H](n2cc(C#Cc3cccc4ccccc34)c3c(N)ncnc32)[C@H](O)[C@@H]1O)S(=O)(=O)c1ccc(OC)c(C#N)c1` [Compound 12d], the CC50 at 3 days in “in vitro [1]” and in “in vitro [3]” was over 100 µM in each case. The EC50 with SARS-CoV-2 [2] and with SARS-CoV-2 [4] was over 100 µM throughout. Moreover, in data set [5], 0.261 ± 0.0516 µM corresponded to half-maximal inhibition (IC50).

Regarding `CCN(C[C@H]1O[C@@H](n2cc(C#Cc3ncc[nH]3)c3c(N)ncnc32)[C@H](O)[C@@H]1O)S(=O)(=O)c1ccc(OC)c(C#N)c1` [Compound 12b], the CC50 at 3 days in “in vitro [1]” and in the data set “in vitro [3]” was over 100 µM in each case. Moreover, the 50% effective concentration (EC50) in the data set on SARS-CoV-2 [2] and in the data set on SARS-CoV-2 [4] was over 100 µM each time. Also, 0.034 ± 0.0049 µM corresponded to half-maximal inhibition in data set [5] (IC50).

Regarding `CCN(C[C@H]1O[C@@H](n2cc(C#Cc3ccc(O)nc3)c3c(N)ncnc32)[C@H](O)[C@@H]1O)S(=O)(=O)c1ccc(OC)c(C#N)c1` [Compound 12f], the CC50 at 3 days in the data set “in vitro [1]” and in the data set “in vitro [3]” was over 100 µM in each case. The EC50 in the data set with SARS-CoV-2 [2] and with SARS-CoV-2 [4] was over 100 µM in each case. In data set [5], this compound came in with a half-maximal inhibitory concentration (IC50) of 0.065 ± 0.0092 µM.

The EC50 is the midpoint of the concentration-response curve. By IC50 is commonly meant the midpoint of a concentration-inhibition curve.
